# Laboratory results from ChEMBL document CHEMBL1201862, “PubChem BioAssay data set” (2004).
# Calls of active or inactive are those of the source.
# Experiments:
# Cytochrome P450 2D6 = Cytochrome P450 2D6 (Homo sapiens, UniProt P10635);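 note: CYP2D6 member of a cytochrome P450 panel assay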
# Cytochrome P450 2C9 = Cytochrome P450 2C9 (Homo sapiens, UniProt P11712)
# [1] = molecular target: T1, Polyadenylate-binding protein 1 (Homo sapiens, UniProt P11940); test: MLLE domain peptide-binding blockers, IC50 – biochemical, fluorescence polarization, FITC-PAM2 peptide, dose response (AID 602259); assay type: functional; settings: read-out: IC50_Mean
# [2] = molecular target: T1, Polyadenylate-binding protein 1; test: MLLE binding blockers, Cy5 peptide tracer – biochemical, fluorescence polarization, Cy5-PAM2 peptide, secondary, miRNA deadenylation inhibitor project, dose response (AID 602260); assay type: functional; settings: read-out: IC50_Mean
# [3] = Luminescence Cell-Based Dose Response HTS to Identify Activators of Luciferase Translation or Activity in H4 […] Cells. [Related pubchem assays: 1829 (Project Summary), 1814 (Primary HTS)]; assay type: functional
# H4 = test: Luminescence Cell-Based Dose Response HTS to Identify Activators of 5'UTR Stem-Loop Driven Prion Protein mRNA Translation in H4 Neuroglioblastoma Cells. [Related pubchem assays: 1829 (Project Summary), 1814 (Primary HTS)]; assay type: functional; settings: Homo sapiens
# INS1 = test: INS-1E survival protection against cytokine death – cell-based, luminescence, retest, dose response (AID 449756); assay type: functional; settings: Rattus norvegicus;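 note: cell death triggered by IL-1 beta plus TNF-alpha plus IFN-gamma mixture; protective hits raise ATP signal compared with cytokine alone wells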
# [4] = molecular target: T2, Heat shock factor protein 1 (Mus musculus, UniProt P38532); test: enhancement of HSF1-driven luciferase signal – cell-based, NIH3T3, luminescence, dose retest, confirmation (AID 435004); assay type: functional;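 note: stress induced by proteasome inhibitor MG132 added 30 min after compound; luciferase reporter driven by HSF1 response element in NIH3T3 cells; actives raise luminescence as potentiators of the MG132 stress response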
# T2 sequence (P38532 whole entry): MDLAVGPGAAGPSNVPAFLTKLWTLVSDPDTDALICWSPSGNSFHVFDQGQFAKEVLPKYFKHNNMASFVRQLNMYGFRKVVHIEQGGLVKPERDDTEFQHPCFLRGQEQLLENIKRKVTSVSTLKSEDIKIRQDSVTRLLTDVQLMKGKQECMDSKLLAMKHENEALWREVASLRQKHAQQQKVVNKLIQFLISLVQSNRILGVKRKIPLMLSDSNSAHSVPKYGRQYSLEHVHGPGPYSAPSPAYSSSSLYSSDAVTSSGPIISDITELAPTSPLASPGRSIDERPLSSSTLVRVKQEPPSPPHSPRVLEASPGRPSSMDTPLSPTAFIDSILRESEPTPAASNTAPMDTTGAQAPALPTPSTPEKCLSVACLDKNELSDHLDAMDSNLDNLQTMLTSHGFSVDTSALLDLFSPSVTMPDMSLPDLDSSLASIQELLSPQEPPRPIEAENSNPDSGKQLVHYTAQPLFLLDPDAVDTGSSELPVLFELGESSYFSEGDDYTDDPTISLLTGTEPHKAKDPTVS
# Cytochrome P450 3A4 = Cytochrome P450 3A4 (Homo sapiens, UniProt P08684);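 note: CYP3A4 tested as one member of a cytochrome P450 panel screen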
# [5] = molecular target: T3, Rac GTPase-activating protein 1 (Homo sapiens, UniProt Q9H0H5); test: blockers of MgcRacGAP-driven Rac1 GTP hydrolysis – biochemical, ADP Hunter fluorescence, primary and confirmatory, confirmation (AID 624330); assay type: functional
# T3 sequence (Q9H0H5 whole entry): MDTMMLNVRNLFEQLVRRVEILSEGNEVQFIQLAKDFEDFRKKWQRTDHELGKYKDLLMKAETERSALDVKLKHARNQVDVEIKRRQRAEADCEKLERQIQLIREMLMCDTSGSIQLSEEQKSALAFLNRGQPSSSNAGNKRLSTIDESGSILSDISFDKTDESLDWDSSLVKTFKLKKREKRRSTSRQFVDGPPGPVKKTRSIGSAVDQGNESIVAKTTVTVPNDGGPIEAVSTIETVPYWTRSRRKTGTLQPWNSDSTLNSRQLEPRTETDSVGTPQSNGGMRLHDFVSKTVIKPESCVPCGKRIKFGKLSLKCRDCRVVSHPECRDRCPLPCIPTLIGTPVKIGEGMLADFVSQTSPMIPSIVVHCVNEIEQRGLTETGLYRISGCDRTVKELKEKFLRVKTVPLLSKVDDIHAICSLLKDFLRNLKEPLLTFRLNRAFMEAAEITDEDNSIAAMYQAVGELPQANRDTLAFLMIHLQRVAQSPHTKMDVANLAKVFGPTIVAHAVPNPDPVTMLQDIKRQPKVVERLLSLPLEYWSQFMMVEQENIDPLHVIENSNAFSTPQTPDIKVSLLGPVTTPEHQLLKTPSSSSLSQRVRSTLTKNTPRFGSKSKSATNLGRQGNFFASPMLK
# Cytochrome P450 1A2 = molecular target: T4, Cytochrome P450 1A2 (Homo sapiens, UniProt P05177);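 note: PubChem cytochrome P450 panel assay, CYP1A2 panel member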
# T4 sequence (P05177 whole entry): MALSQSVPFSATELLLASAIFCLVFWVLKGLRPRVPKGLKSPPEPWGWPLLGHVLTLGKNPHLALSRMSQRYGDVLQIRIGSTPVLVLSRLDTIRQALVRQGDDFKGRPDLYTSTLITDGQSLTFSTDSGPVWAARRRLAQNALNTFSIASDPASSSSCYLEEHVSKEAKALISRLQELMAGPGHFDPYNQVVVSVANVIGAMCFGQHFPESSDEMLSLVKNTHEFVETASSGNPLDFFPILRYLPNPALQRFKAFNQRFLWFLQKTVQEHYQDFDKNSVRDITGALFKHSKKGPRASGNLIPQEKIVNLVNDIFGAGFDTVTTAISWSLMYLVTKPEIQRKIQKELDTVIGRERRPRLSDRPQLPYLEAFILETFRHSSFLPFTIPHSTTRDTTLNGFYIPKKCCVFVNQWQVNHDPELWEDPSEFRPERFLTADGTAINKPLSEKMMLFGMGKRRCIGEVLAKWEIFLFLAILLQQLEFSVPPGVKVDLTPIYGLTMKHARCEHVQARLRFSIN
# [6] = Luminescence Cell-Based Dose Retest to Confirm Inhibitors of Cancer Stem Cells. [Related pubchem assays (depositor defined):AID2717, AID2721]; assay type: functional; settings: Homo sapiens
# Cytochrome P450 2C19 = Cytochrome P450 2C19 (Homo sapiens, UniProt P33261); test: Cytochrome panel assay with activity outcomes. Panel member name: p450-cyp2c19 Compounds with AC50 equal or less than 10 uM are considered active; assay type: functional; settings: read-out: AC50
# Cytochrome P450 2C19, sequence (P33261 whole entry): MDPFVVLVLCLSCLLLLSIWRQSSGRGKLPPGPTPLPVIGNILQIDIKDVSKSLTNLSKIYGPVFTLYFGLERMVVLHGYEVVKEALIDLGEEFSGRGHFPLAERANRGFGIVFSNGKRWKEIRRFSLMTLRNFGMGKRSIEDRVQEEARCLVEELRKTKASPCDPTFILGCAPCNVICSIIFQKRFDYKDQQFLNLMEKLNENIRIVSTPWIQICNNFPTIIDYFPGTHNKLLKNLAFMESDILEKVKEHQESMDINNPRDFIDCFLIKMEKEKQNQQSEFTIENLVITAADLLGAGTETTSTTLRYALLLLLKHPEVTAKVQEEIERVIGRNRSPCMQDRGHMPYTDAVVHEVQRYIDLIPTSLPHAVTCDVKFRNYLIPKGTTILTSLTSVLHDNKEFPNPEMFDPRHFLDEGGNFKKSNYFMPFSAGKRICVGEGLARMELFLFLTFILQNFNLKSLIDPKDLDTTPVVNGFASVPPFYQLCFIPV
# Cytochrome P450 2D6, sequence (P10635 whole entry): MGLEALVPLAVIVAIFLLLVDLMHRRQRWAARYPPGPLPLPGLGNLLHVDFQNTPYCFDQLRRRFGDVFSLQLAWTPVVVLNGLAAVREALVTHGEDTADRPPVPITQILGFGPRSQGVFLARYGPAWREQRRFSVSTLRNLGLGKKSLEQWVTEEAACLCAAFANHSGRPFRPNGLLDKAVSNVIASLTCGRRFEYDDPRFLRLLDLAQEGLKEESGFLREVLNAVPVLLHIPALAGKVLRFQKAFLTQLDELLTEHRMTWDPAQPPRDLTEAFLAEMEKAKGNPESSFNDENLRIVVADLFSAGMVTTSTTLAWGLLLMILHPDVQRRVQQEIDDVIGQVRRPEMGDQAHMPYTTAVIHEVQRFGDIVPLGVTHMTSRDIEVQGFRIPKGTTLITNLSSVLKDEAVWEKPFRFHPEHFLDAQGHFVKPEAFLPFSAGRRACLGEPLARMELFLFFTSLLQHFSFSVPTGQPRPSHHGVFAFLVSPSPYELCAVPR
# Cytochrome P450 2C9, sequence (P11712 whole entry, the tested form may be a part): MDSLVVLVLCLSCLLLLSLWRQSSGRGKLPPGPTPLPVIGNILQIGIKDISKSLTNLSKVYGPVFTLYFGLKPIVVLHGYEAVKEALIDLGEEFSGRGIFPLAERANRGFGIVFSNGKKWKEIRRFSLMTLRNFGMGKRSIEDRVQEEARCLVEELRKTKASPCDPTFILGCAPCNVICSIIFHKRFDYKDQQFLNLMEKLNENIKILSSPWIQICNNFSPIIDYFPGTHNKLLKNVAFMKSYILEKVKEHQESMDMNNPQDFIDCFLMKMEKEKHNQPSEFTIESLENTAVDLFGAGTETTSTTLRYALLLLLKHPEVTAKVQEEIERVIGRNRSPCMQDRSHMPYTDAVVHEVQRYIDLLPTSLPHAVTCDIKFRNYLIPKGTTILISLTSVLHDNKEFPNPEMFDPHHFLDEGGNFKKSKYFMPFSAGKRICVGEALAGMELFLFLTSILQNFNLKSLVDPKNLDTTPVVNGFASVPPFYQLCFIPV
# T1 sequence (P11940 whole entry, the tested form may be a part): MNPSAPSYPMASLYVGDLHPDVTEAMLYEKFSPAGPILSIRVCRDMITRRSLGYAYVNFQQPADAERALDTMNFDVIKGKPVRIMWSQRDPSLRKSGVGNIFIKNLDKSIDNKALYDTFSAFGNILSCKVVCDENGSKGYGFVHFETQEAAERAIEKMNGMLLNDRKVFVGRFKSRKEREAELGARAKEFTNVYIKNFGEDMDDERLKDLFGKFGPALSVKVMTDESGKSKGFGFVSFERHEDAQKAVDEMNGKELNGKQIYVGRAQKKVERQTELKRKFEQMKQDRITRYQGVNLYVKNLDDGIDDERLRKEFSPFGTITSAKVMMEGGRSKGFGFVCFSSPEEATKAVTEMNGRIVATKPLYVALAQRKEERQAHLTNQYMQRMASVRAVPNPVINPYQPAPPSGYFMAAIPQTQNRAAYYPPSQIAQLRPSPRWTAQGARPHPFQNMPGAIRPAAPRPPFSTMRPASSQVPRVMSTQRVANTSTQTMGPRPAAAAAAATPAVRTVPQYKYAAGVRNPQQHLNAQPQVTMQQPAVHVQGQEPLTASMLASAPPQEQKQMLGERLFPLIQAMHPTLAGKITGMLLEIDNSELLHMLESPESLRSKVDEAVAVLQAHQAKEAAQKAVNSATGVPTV
# Cytochrome P450 3A4, sequence (P08684 whole entry): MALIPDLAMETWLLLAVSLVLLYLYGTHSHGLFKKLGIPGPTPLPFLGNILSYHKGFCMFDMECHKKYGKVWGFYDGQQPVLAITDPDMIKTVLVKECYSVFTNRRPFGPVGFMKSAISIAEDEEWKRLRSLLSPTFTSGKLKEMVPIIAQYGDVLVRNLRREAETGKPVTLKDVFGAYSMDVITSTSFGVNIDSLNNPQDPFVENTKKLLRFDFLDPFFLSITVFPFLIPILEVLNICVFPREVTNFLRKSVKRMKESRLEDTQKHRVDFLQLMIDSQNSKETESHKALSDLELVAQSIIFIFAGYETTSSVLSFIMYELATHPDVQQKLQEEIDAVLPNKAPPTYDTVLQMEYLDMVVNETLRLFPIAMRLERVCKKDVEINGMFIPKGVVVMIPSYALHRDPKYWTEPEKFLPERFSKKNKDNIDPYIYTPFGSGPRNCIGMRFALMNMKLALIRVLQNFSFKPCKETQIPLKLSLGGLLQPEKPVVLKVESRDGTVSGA
structure (smiles),measurement,setting,value
COCCn1c(=O)c(-c2ccc(Cl)cc2)nc2cnc(N(C)C)nc21,AC50,Cytochrome P450 2D6,0.0794 µM (inconclusive)
COc1ccc(CNc2ccnc(-c3cccc(C#N)c3)n2)c(OC)c1,AC50,Cytochrome P450 2C9,0.501 µM (inconclusive)
same,AC50,Cytochrome P450 2D6,12.6 µM (inconclusive)
O=C(NCSc1ccccc1)c1ccccc1,IC50,[1],> 66 µM (inactive)
same,IC50,[2],> 66 µM (inactive)
Cc1cc(C(=O)CSc2nnnn2C)c(C)n1Cc1ccco1,EC50,[3],5.73 µM (active)
same,EC50,H4,> 120 µM (not active)
CC(=O)Nc1ccc(S(=O)(=O)Nc2nnc(CC(C)(C)C)s2)cc1,IC50,[1],> 66 µM (inactive)
same,IC50,[2],> 66 µM (inactive)
CCc1ccc(C2CC(c3cccc(Cl)c3)n3nc(N)nc3N2)cc1 (stereo not drawn),AC50,INS1,> 120 µM (inactive)
COc1cccc(-c2nc(N3CCN(c4ccccc4)CC3)c3ccccc3n2)c1O,EC50,[4],> 260 µM (inactive)
CCCCOC(=O)CCCc1ccc([N+](=O)[O-])cc1[N+](=O)[O-],EC50,[4],> 260 µM (inactive)
Cc1onc(-c2ccccc2)c1C(=O)N=C(N)c1ccc(C(F)(F)F)cc1,EC50,[4],> 260 µM (inactive)
O=C(OCc1ccccc1F)c1ccc2c(c1)OCCO2,EC50,[3],1.38 µM (active)
same,EC50,H4,5.23 µM (active)
CCc1ccc(Nc2ncccc2C#N)cc1,AC50,Cytochrome P450 3A4,28.2 µM (inconclusive)
same,AC50,Cytochrome P450 2D6,20 µM (inconclusive)
S=C(Nc1ccc2nc(-c3ccccn3)c(-c3ccccn3)nc2c1)N1CCOCC1,IC50,[1],40.3 µM (inactive)
same,IC50,[2],> 66 µM (inactive)
Cc1noc(-c2ccc(C(F)(F)F)cc2)c1NC(=O)Nc1ccc(Cl)cc1,AC50,INS1,6.96 µM (active)
N#CC1=C(S)N(c2ccccc2)C(c2ccc(-c3cccc(Cl)c3)o2)NC1=O (stereo not drawn),IC50,[5],181 µM (active)
O=C(c1csnn1)N1CCC2(CC1)CCN(c1ccccc1)CC2,AC50,Cytochrome P450 2D6,7.94 µM (inconclusive)
same,AC50,Cytochrome P450 1A2,15.8 µM (inconclusive)
COc1ccc(C2Nc3ccccc3C(=O)N2c2ccc(C)cc2)cc1Cn1nnc2ccccc21 (stereo not drawn),EC50,[3],4.2 µM (active)
same,EC50,H4,50.7 µM (active)
Cc1ccc(NC(=O)CN2CCN(C)CC2)cc1Br,IC50,[5],98.5 µM (active)
COc1ccc2[nH]cc(CCNc3cc(-c4cccnc4)ncn3)c2c1,AC50,Cytochrome P450 2D6,20 µM (inconclusive)
COCCCn1c(C(=O)NC2CCCCC2C)cc2c(=O)n3cccc(C)c3nc21 (stereo not drawn),EC50,[4],> 260 µM (inactive)
CCCCCCc1cc2cc(C(=O)Nc3ccccc3)c(=O)oc2cc1O,AC50,[6],0.257 µM (active)
same,AC50,INS1,3.15 µM (active)
CN(Cc1nnc(-c2ccc(F)cc2)o1)c1ccccc1,EC50,[4],> 260 µM (inactive)
CC(C)Cn1c(SCc2nc(O)c3ccccc3n2)nc2ccccc2c1=O,AC50,Cytochrome P450 2D6,3.98 µM (inconclusive)
FC(F)(F)c1cc(CN2CCC3(CCNCC3)CC2)cc(C(F)(F)F)c1,AC50,Cytochrome P450 3A4,31.6 µM (inconclusive)
same,AC50,Cytochrome P450 2D6,25.1 µM (inconclusive)
COc1ccc(NC(=O)Nc2sc(NS(=O)(=O)c3ccccc3)nc2C)cc1,IC50,[1],> 66 µM (inactive)
same,IC50,[2],> 66 µM (inactive)
COc1ccccc1N1CCN(Cc2cccc(OC)c2O)CC1,EC50,[4],> 260 µM (inactive)
COc1cccc(-c2nn(-c3ccccc3)cc2C(=O)n2nnc3ccccc32)c1,EC50,[4],4.15 µM (active)
CC1(C)CC2=Nc3cc4c(cc3C(c3ccc5c(c3)OCO5)C2=C(O)C1)OCO4 (stereo not drawn),EC50,[4],72 µM (active)
CC(=O)c1cccc(NC(=S)NC(=O)c2ccccc2Br)c1,IC50,[1],> 66 µM (inactive)
same,IC50,[2],> 66 µM (inactive)
Cc1[nH]c2ccccc2c1/C=C(\C#N)C(=O)NCC1CCCO1 (stereo not drawn),EC50,[4],53.1 µM (active)
CCc1c(O)nc(SCc2nc(O)c3ccccc3n2)nc1O,IC50,[1],> 66 µM (inactive)
same,IC50,[2],> 66 µM (inactive)
c1ccc(CN2CCN(CCOCCOc3ccc4c(c3)CCC4)CC2)cc1,IC50,[5],53.6 µM (active)
COC(=O)[C@@]1(Cc2ccc(OC)cc2)[C@H]2c3cc(C(=O)N(C)C)n(CCc4c[nH]c5ccc(O)cc45)c3C[C@H]2CN1C(=O)c1ccccc1,AC50,Cytochrome P450 2C19,25.1 µM (inconclusive)
same,AC50,Cytochrome P450 2D6,15.8 µM (inconclusive)
O=C(NCCc1ccccc1)c1noc2c1CCc1ccccc1-2,AC50,Cytochrome P450 2C9,7.08 µM (inconclusive)
same,AC50,Cytochrome P450 2D6,2.51 µM (inconclusive)
Sc1nnc2ccccn12,IC50,[5],34 µM (active)
COC(=O)[C@@H](Cc1ccccc1)N(Cc1ccccc1)S(=O)(=O)N(Cc1ccccc1)[C@H](Cc1ccccc1)C(=O)OC,AC50,INS1,3.91 µM (active)
CCOC(=O)c1c(S(=O)(=O)NCC2CCN(CCc3cccs3)CC2)c(C)n(C)c1C,EC50,[4],> 260 µM (inactive)
Cc1ccc2nc(-c3cccnc3)c(NC3CCCCC3)n2c1,IC50,[1],34.7 µM (inactive)
same,IC50,[2],41.4 µM (inactive)
CCC1(c2ccccc2)NC(=O)N(CC(=O)NCc2ccccc2OC)C1=O (stereo not drawn),EC50,[4],> 260 µM (inactive)
CCC(=O)/C=C1/Sc2ccc(OC)cc2N1CCO,IC50,[1],> 66 µM (inactive)
same,IC50,[2],> 66 µM (inactive)
CSc1ccccc1NC(=O)CN(C)C(C)C(=O)NCc1ccc2c(c1)OCO2 (stereo not drawn),IC50,[5],46.7 µM (active)
COC(=O)N1C(c2ccccc2)C1c1ccccc1 (stereo not drawn),EC50,[4],> 260 µM (inactive)
NC(=O)c1ccccc1OC1CCC1,AC50,INS1,> 260 µM (inactive)
O=C(N/N=C/c1cc(Br)c(O)c(Br)c1O)c1ccc2c(c1)OCCO2,AC50,INS1,3.1 µM (active)
FC(F)(F)C(F)(F)C(F)(F)c1nc2nc(Cl)c(Cl)[nH]c-2n1,IC50,[1],> 66 µM (inactive)
same,IC50,[2],> 66 µM (inactive)
COc1cc(/C=N/Nc2ccccn2)cc(OC)c1O,IC50,[5],35 µM (active)
C/C(=N/OC(=O)c1cccc(Cl)c1)c1nccs1,AC50,Cytochrome P450 2C19,20 µM (inconclusive)
same,AC50,Cytochrome P450 2D6,35.5 µM (inconclusive)
same,AC50,Cytochrome P450 1A2,31.6 µM (inconclusive)
CCOc1cc(/C=N/NC(=O)C(=O)N2CCCC2)ccc1O,IC50,[5],56.3 µM (active)
CC(=O)c1cccc(/N=C/c2c(O)oc3ccccc3c2=O)c1,EC50,[4],2.8 µM (active)
COC1=C(OC)C(=O)c2ccccc2C1=O,AC50,Cytochrome P450 2C19,31.6 µM (inconclusive)
same,AC50,Cytochrome P450 2C9,39.8 µM (inconclusive)
same,AC50,Cytochrome P450 2D6,39.8 µM (inconclusive)
Cc1cc(NC(=O)c2sc3ccccc3c2O)no1,IC50,[5],75.2 µM (active)
